“Also recorded” adds a separate entry of the source.
Legend:
D deficient rat [1] = test: In vivo calcemic activity: intestinal calcium transport (everted gut sac technique); settings: for TRANSPORT (S/M): intraperitoneal, mean ± SEM
Procedure: (§1) In vivo Calcemic Activity
(§2) These studies were carried out with five to six rats per group. Male weanling rats were fed a vitamin D-deficient diet for one week and then shifted to the same diet but with calcium removed for three weeks. The hypocalcemic rats were dosed intraperitoneally with the indicated dose of compound per day for a total of 7 days. Twenty-four hours after the last dose all animals were killed by decapitation and serum calcium was measured by atomic absorption spectroscopy in the presence of 1.0% lanthanium chloride. Intestinal calcium transport was measureed by the everted gut sac technique of Martin and Deluca.

D deficient rat [2] = test: In vivo calcemic activity: serum calcium / bone calcium mobilization (atomic absorption spectroscopy); settings: for SERUM CALCIUM: intraperitoneal, mean ± SEM; for effect on bone, in words: rat, in vivo
Procedure: as §1, §2

leukemia cells = settings: U.S. Pat. No. 4,391,802; cited from earlier work
[3] = target: T1, Procine Intestinal Nuclear Vitamin D Receptor (Sus scrofa, UniProt A3RGC1); test: biochemical
T1 sequence (A3RGC1 1-427): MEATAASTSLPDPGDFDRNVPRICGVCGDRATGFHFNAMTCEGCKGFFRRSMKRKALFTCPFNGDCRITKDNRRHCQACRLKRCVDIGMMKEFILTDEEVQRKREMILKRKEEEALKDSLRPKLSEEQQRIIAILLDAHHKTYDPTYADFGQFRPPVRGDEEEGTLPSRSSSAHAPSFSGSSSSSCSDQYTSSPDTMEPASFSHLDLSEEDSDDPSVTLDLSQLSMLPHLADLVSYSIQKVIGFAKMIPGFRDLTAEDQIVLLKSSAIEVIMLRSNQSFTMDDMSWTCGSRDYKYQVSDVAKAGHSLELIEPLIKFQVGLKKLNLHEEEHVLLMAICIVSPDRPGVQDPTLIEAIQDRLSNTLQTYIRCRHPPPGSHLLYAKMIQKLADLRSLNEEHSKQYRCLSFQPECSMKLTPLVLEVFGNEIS
Source text: Binding to the Procine Intestinal Nuclear Vitamin D Receptor.

HL-60 cells [4] = test: Differentiation of HL-60 cells (NBT reduction assay); assay type: cell-based, human; settings: for Activity vs. 1,25(OH)2 D3: HL-60 differentiation, ratio to 1,25(OH)2 D3; for EC50: Homo sapiens, read-out: EC50 (concentration to induce differentiation in 50% of the cells; text: IC50), NBT reduction, HL-60; for in vitro differentiative (D) and anti-proliferative (I) activity, in words: HL-60, differentiation and proliferation; for differentiative activity (D) used for T.P.: relative to 1,25-(OH)2 D3
Procedure: Differentiation of HL-60 Cells.
The ability of the 14-epi-19-nor-vitamin analogs and the corresponding 19-nor-vitamin D analogs to induce differentiation in the human HL-60 promyelocyte cell line was measured by a nitroblue tetrazolium (NBT) reduction assay.

[5] = target: T1, Procine Intestinal Nuclear Vitamin D Receptor; settings: VDR binding, ratio to 1,25(OH)2 D3
HL-60 cells [6] = test: Inhibition of HL-60 cell proliferation (thymidine incorporation assay); assay type: cell-based, human; settings: for Activity vs. 1,25(OH)2 D3: HL-60 proliferation, ratio to 1,25(OH)2 D3; for EC50: Homo sapiens, read-out: EC50 (50% reduction in thymidine incorporation; text: IC50), thymidine incorporation, HL-60; for anti-proliferative activity (I) used for T.P.: relative to 1,25-(OH)2 D3
Procedure: Inhibition of HL-60 Cell Proliferation.
The ability of the 14-epi-19-nor-vitamin D analogs and the corresponding 19-nor-vitamin D analogs to inhibit proliferation of the HL-60 cell line was measured by thymidine incorporation assay.

D deficient rat [7] = test: In vivo calcemic activity, overall; settings: for calcemic activity used for T.P.: relative to 1,25-(OH)2 D3; for calcemic activity, in words: relative to 1,25-(OH)2 D3 or 19-nor compounds
Procedure: as §1, §2

D deficient rat [8] = test: In vivo activation of pro-drug (25-hydroxylation by the liver); settings: inferred from in vivo activity
Procedure: as §2
The in vivo results also establish the PRO-DRUG concept for the 14-epi-19-nor-25-deoxy-analog. […] This minimal bone activity resulting in lower calcemic toxicity may have important clinical implications.

[9] = TABLE 1, 250 pmol/d/7 days, 5 rats
[10] = TABLE 1, 625 pmol/d/7 days, 5 rats
[11] = TABLE 2, 250 pmol/d/7 days, 5 rats
[12] = TABLE 3, 260 pmol/d/7 days, 6 rats
[13] = TABLE 2, 625 pmol/d/7 days, 5 rats
[14] = TABLE 2, 1300 pmol/d/7 days, 5 rats
[15] = TABLE 1, 1300 pmol/d/7 days, 5 rats
[16] = TABLE 3, 625 pmol/d/7 days, 6 rats
[17] = TABLE 3, 1300 pmol/d/7 days, 6 rats

Row | EC50 [3] [nM] | EC50 (HL-60 cells [4]) [nM] | Activity vs. 1,25(OH)2 D3 [5] | EC50 (HL-60 cells [6]) [nM] | Structure (SMILES) | TRANSPORT (S/M) (D deficient rat [1]; [9]) | TRANSPORT (S/M) (D deficient rat [1]; [10]) | SERUM CALCIUM (D deficient rat [2]; [9]) [mg/100 ml] | SERUM CALCIUM (D deficient rat [2]; [10]) [mg/100 ml] | TRANSPORT (S/M) (D deficient rat [1]; [11]) | TRANSPORT (S/M) (D deficient rat [1]; [12]) | SERUM CALCIUM (D deficient rat [2]; [11]) [mg/100 ml] | SERUM CALCIUM (D deficient rat [2]; [12]) [mg/100 ml] | TRANSPORT (S/M) (D deficient rat [1]; [13]) | TRANSPORT (S/M) (D deficient rat [1]; [14]) | Activity vs. 1,25(OH)2 D3 (HL-60 cells [4]) | SERUM CALCIUM (D deficient rat [2]; [13]) [mg/100 ml] | SERUM CALCIUM (D deficient rat [2]; [14]) [mg/100 ml] | Activity vs. 1,25(OH)2 D3 (HL-60 cells [6]) | other results
1 | – | – | – | – | C=C1/C(=C\C=C2/CCC[C@]3(C)[C@@H]([C@H](C)CCCC(C)C)CC[C@@H]23)C[C@@H](O)C[C@@H]1O [1(OH)D3, 1α-hydroxyvitamin D3] | 8.1 ± 0.1 | 10.6 ± 1.4 | 4.8 ± 0.3 | 5.9 ± 0.1 | – | – | – | – | – | – | – | – | – | – | antileukemic activity (induction of differentiation), in words (leukemia cells): potent antileukemic activity
2 | – | – | – | – | C=C1/C(=C\C=C2/CCC[C@]3(C)[C@@H]([C@H](C)CCCC(C)(C)O)CC[C@@H]23)C[C@@H](O)C[C@@H]1O [1,25(OH)2 D3, 1α,25-dihydroxyvitamin D3] | – | – | – | – | 7.8 ± 0.4 | 7.18 ± 0.47 | 5.3 ± 0.3 | 5.36 ± 0.27 | – | – | – | – | – | – | antileukemic activity (induction of differentiation), in words (leukemia cells): potent antileukemic activity
3 | – | – | – | – | CC(C)CCC[C@@H](C)[C@H]1CC[C@H]2/C(=C/C=C3C[C@@H](O)C[C@H](O)C3)CCC[C@]12C [19-nor-1(OH)D3] | 6.3 ± 0.7 | 8.6 ± 0.7 | 3.4 ± 0.2 | 3.7 ± 0.2 | – | – | – | – | – | – | – | – | – | – | –
4 | 4.2 | 13 | 0.2 | 60 | C[C@H](CCCC(C)(C)O)[C@H]1CC[C@H]2/C(=C/C=C3C[C@@H](O)C[C@H](O)C3)CCC[C@]12C [19-nor-1,25(OH)2 D3, 19-nor-1,25-dihydroxyvitamin D3, reference compound] | – | – | – | – | 4.8 ± 0.4 | – | 3.6 ± 0.1 | – | 4.9 ± 0.5 | 4.8 ± 0.5 | 0.40 | 3.6 ± 0.2 | 3.7 ± 0.2 | 0.5 | –
5 | 600 | – | 0.0013 | – | CC(C)CCC[C@H](C)[C@H]1CC[C@H]2/C(=C/C=C3C[C@@H](O)C[C@H](O)C3)CCC[C@]12C [20-epi-19-nor-1(OH)D3] | 7.6 ± 0.5 | 9.2 ± 1.1 | 4.1 ± 0.1 | 5.4 ± 0.3 | – | – | – | – | – | – | – | – | – | – | TRANSPORT (S/M) (D deficient rat [1]; [15]): 11.7 ± 1.4 S/M; SERUM CALCIUM (D deficient rat [2]; [15]): 6.7 ± 0.2 mg/100 ml
6 | 0.8 | 0.2 | 1.0 | 4 | C[C@@H](CCCC(C)(C)O)[C@H]1CC[C@H]2/C(=C/C=C3C[C@@H](O)C[C@H](O)C3)CCC[C@]12C [20-epi-19-nor-1,25(OH)2 D3, reference compound] | – | – | – | – | 7.3 ± 0.1 | – | 5.7 ± 0.5 | – | 8.2 ± 0.7 | 8.7 ± 0.7 | 25 | 6.3 ± 0.4 | 6.6 ± 0.5 | 7.5 | –
7 | 4.5 | 15 | 0.18 | 80 | C[C@H](CCCC(C)(C)O)[C@H]1CC[C@@H]2/C(=C/C=C3C[C@@H](O)C[C@H](O)C3)CCC[C@@]21C [[27], 14-epi-19-nor-1α,25-dihydroxyvitamin D3] | – | – | – | – | 4.1 ± 0.4 | – | 3.6 ± 0.2 | – | 3.2 ± 0.4 | 3.5 ± 0.3 | 0.33 | 3.2 ± 0.1 | 3.4 ± 0.1 | 0.4 | calcemic activity relative to the natural hormone (D deficient rat [7]; 5× the dose of 1,25-(OH)2 D3): less than 20%; calcemic activity used for T.P. (D deficient rat [7]): < 0.2; calcemic activity, in words (D deficient rat [7]): no calcemic activity at 5× the dose of 1,25-(OH)2 D3; also recorded: greatly reduced calcemic activity; in vitro differentiative (D) and anti-proliferative (I) activity, in words (HL-60 cells [4]): approximately half as active as 1,25-(OH)2 D3; differentiative activity (D) used for T.P. (HL-60 cells [4]): 0.33; cellular activity, in words (HL-60 cells [4]; relative to native hormone): cellular activity similar to the native hormone; anti-proliferative activity (I) used for T.P. (HL-60 cells [6]): 0.4
8 | > 1000 | – | < 0.0008 | – | CC(C)CCC[C@H](C)[C@H]1CC[C@@H]2/C(=C/C=C3C[C@@H](O)C[C@H](O)C3)CCC[C@@]21C [[28], 14-epi-20-epi-19-nor-1α-hydroxyvitamin D3] | – | – | – | – | – | 3.80 ± 0.23 | – | 3.96 ± 0.05 | – | – | – | – | – | – | TRANSPORT (S/M) (D deficient rat [1]; [16]): 5.14 ± 0.66 S/M; TRANSPORT (S/M) (D deficient rat [1]; [17]): 5.90 ± 0.49 S/M; activity on gut, in words (D deficient rat [1]; rat, in vivo): reduced activity on gut compared to the 25-hydroxy drug compound; in vivo activation / 25-hydroxylation / clearance, in words (D deficient rat [8]): has been 25-hydroxylated by the liver; also recorded: activated in vivo to the active drug product; SERUM CALCIUM (D deficient rat [2]; [16]): 4.11 ± 0.10 mg/100 ml; SERUM CALCIUM (D deficient rat [2]; [17]): 3.79 ± 0.05 mg/100 ml; effect on bone, in words (D deficient rat [2]): no activity on bone
9 | 2.5 | 0.5 | 0.33 | 0.66 | C[C@@H](CCCC(C)(C)O)[C@H]1CC[C@@H]2/C(=C/C=C3C[C@@H](O)C[C@H](O)C3)CCC[C@@]21C [[29], 14-epi-20-epi-19-nor-1α,25-dihydroxyvitamin D3] | – | – | – | – | – | 4.36 ± 0.30 | – | 4.02 ± 0.16 | – | – | 10.0 | – | – | 45 | TRANSPORT (S/M) (D deficient rat [1]; [16]): 6.94 ± 0.27 S/M; TRANSPORT (S/M) (D deficient rat [1]; [17]): 7.14 ± 0.44 S/M; activity on gut, in words (D deficient rat [1]; rat, in vivo): only minimal gut activity; gut activity relative to the natural hormone (D deficient rat [1]; rat, in vivo): 20%; calcemic activity used for T.P. (D deficient rat [7]): < 0.2; calcemic activity, in words (D deficient rat [7]): greatly reduced; in vitro differentiative (D) and anti-proliferative (I) activity, in words (HL-60 cells [4]): most potent analog; times more potent than 1,25-(OH)2 D3 (D) (HL-60 cells [4]; differentiative (D)): 10 times; differentiative activity (D) used for T.P. (HL-60 cells [4]): 8.0; SERUM CALCIUM (D deficient rat [2]; [16]): 3.66 ± 0.06 mg/100 ml; SERUM CALCIUM (D deficient rat [2]; [17]): 4.10 ± 0.20 mg/100 ml; effect on bone, in words (D deficient rat [2]): no effect on bone at any of the doses tested; times more potent than 1,25-(OH)2 D3 (I) (HL-60 cells [6]; anti-proliferative (I)): 45 times; anti-proliferative activity (I) used for T.P. (HL-60 cells [6]): 56

Source: patent US5936105A, “14-EPI-19-nor-vitamin D compounds and methods” (Tetrionics, Inc., priority 1998, dated 1999)
